In article PMC8199067, “Urolithin and Reduced Urolithin Derivatives as Potent Inhibitors of Tyrosinase and Melanogenesis: Importance of the 4-Substituted Resorcinol Moiety” (International Journal of Molecular Sciences, 2021):
Where “and” joins values, the source holds several entries; their conditions need not be identical. Equal entries are not always repeated. Where two headings read alike, the source gives them in different places. One block for each compound: values may come before it.

Key:
mushroom tyrosinase [1] = biological target: T1, mushroom tyrosinase (Agaricus bisporus, UniProt C7FF04); assay: Mushroom tyrosinase inhibitory assay (L-tyrosine substrate); type: biochemical; details: for inhibition at 50 µM / Tyrosinase Inhibition (%): L-tyrosine as substrate, mean ± SEM, NI means no inhibition, 50 μM
Experimental: The experiment was repeated three times. Mushroom tyrosinase inhibitions % were calculated using:% Inhibition = [1 − (A/B)] × 100(1) where A is the absorbance of the test compound and B is the absorbance of the blank.
Log-linear curves were plotted, and their equations were determined.
Target sequence in this assay (C7FF04 1-392 limits assumed): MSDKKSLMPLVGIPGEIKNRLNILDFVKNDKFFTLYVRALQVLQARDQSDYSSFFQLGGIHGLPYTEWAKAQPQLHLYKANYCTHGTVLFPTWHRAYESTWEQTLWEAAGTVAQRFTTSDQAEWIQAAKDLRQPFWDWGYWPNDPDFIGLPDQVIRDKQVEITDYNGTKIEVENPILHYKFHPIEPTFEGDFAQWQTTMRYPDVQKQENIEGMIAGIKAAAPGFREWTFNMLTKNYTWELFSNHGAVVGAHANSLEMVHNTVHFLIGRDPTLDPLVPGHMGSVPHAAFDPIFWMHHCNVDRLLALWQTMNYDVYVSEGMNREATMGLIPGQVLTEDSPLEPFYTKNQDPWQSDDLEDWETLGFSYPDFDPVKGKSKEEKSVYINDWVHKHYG

mushroom tyrosinase [2] = biological target: T1, mushroom tyrosinase; assay: Kinetic analysis of mushroom tyrosinase inhibition, Lineweaver–Burk plots; type: biochemical; details: for Mode of tyrosinase inhibition: Lineweaver–Burk analysis, L-tyrosine as substrate
Experimental: Briefly, 170 μL of a mixture of an aqueous solution of L-[…].0, 2.0, 4.0, or 8.0 mM and 50 mM of potassium phosphate (pH 6.5) was added to a 96-well plate. […] Lineweaver-Burk plots were used to determine Vmax (maximal reaction rates) and KM (Michaelis-Menten constants) of mushroom tyrosinase activities.
Target sequence in this assay (C7FF04 1-392): as the sequence (C7FF04 1-392 limits assumed) above

[3] = EZ-cytox cell viability assay; type: cell-based, murine; details: mouse, B16F10 melanoma cells, 20 µM
Experimental: (§1) EZ-cytox assays were performed to examine whether these compounds are cytotoxic.
(§2) B16F10 murine melanoma cells were purchased from the American Type Culture Collection (ATCC, Manassas, VA, USA). Cells were cultured in Dulbecco’s modified Eagle’s medium (10% fetal bovine serum (FBS), and 1% streptomycin) obtained from Gibco/Thermo Fisher Scientific (Carlsbad, CA, USA) at 37 °C in a 5% CO2 environment. These cultured cells were used for cell viability, melanin content, and cellular tyrosinase inhibitory assays.
(§3) EZ-cytox assays were performed on 1c, 1h, and 2a, according to previously described. B16F10 cells were seeded in a 96-well plate at a density of 5 × 10^4 cells/well and incubated at 37 °C in a humidified 5% CO2 atmosphere overnight. Cells were then treated with different concentrations of 1c, 1h, or 2a (0, 1, 2, 5, 10, or 20 µM) and incubated for 24 h under the same conditions. EZ-cytox solution (10 µL) was then added and the plate was incubated for 3 h at 37 °C in a humidified 5% CO2 atmosphere. Optical densities of wells were measured at 450 nm using an ELISA reader. All experiments were independently repeated three times.

B16F10 melanoma cells = assay: EZ-cytox cell viability assay; type: cell-based, murine; details: 1–20 µM, 24 h
Experimental: as §1, §2, §3

[4] = inhibitor 10 μM, L-tyrosine 1.0–8.0 mM
[5] = not dependent on inhibitor concentration
[6] = 1.56 μM, read-out: Average of Inhibition (%)
[7] = 1.56 μM, read-out: Inhibition (%), single determinations
[8] = 3.13 μM, read-out: Average of Inhibition (%)
[9] = 3.13 μM, read-out: Inhibition (%), single determinations
[10] = 6.25 μM, read-out: Average of Inhibition (%)
[11] = 6.25 μM, read-out: Inhibition (%), single determinations

SMILES: O=c1oc2cc(O)cc(O)c2c2ccccc12 [Compound 1c, 1,3-Dihydroxy-6H-benzo[c]chromen-6-one]
Mode of tyrosinase inhibition (mushroom tyrosinase [2]): competitive inhibitors
Vmax (mushroom tyrosinase [2]; [4]): 0.027 mM/min
Vmax (mushroom tyrosinase [2]; inhibitor 20 μM, L-tyrosine 1.0–8.0 mM): 0.027 mM/min
Vmax (mushroom tyrosinase [2]; inhibitor 40 μM, L-tyrosine 1.0–8.0 mM): 0.027 mM/min
Vmax (mushroom tyrosinase [2]; [5]): 0.027 mM/min
Inhibition (%), single determinations (mushroom tyrosinase [1]; 1.56 μM): 4.01% and 2.57%
inhibition at 1.56 µM (mushroom tyrosinase [1]; [6]): 3.06 ± 0.47%
inhibition at 1.56 µM (mushroom tyrosinase [1]; [7]): 2.61%
Inhibition (%), single determinations (mushroom tyrosinase [1]; 3.13 μM): 10.84% and 9.94%
inhibition at 3.13 µM (mushroom tyrosinase [1]; [8]): 10.1 ± 0.37%
inhibition at 3.13 µM (mushroom tyrosinase [1]; [9]): 9.61%
Inhibition (%), single determinations (mushroom tyrosinase [1]; 6.25 μM): 25.08% and 33.10%
inhibition at 6.25 µM (mushroom tyrosinase [1]; [10]): 28.5 ± 2.39%
inhibition at 6.25 µM (mushroom tyrosinase [1]; [11]): 27.3%
Inhibition (%), single determinations (mushroom tyrosinase [1]; 12.50 μM, 12.5 µM): 45.18% and 48.37%
inhibition at 12.5 µM (mushroom tyrosinase [1]; 12.50 μM, read-out: Average of Inhibition (%)): 45.8 ± 1.37%
inhibition at 12.5 µM (mushroom tyrosinase [1]; 12.50 μM, read-out: Inhibition (%), single determinations): 43.7%
Inhibition (%), single determinations (mushroom tyrosinase [1]; 25.00 μM): 61.85%
inhibition at 25 µM (mushroom tyrosinase [1]; 25.00 μM, read-out: Average of Inhibition (%)): 61.21 ± 0.32%
inhibition at 25 µM (mushroom tyrosinase [1]; 25.00 μM, read-out: Inhibition (%), single determinations): 60.9%
Tyrosinase Inhibition (%) (mushroom tyrosinase [1]): 68.93 ± 0.67%
inhibition at 50 µM (mushroom tyrosinase [1]): 69%
IC50 (mushroom tyrosinase [1]; mushroom tyrosinase, L-tyrosine, read-out: IC50): 18.1 ± 0.25 µM
viability at 24 h, 20 µM [3]: 71.4%
Cytotoxic effect (B16F10 melanoma cells): weakly cytotoxic

SMILES: COc1ccc2c(c1)oc(=O)c1ccccc12 [Compound 1b, 3-Methoxy-6H-benzo[c]chromen-6-one]
inhibition at 50 µM (mushroom tyrosinase [1]): < 0%

SMILES: COc1cc(OC)c2c(c1)oc(=O)c1ccccc12 [Compound 1d, 1,3-Dimethoxy-6H-benzo[c]chromen-6-one]
inhibition at 50 µM (mushroom tyrosinase [1]): < 0%

SMILES: COc1ccc2c(c1)c(=O)oc1cc(O)cc(O)c12 [Compound 1h, 1,3-Dihydroxy-8-methoxy-6H-benzo[c]chromen-6-one]
Mode of tyrosinase inhibition (mushroom tyrosinase [2]): competitive inhibitors
Vmax (mushroom tyrosinase [2]; inhibitor 2.5 μM, L-tyrosine 1.0–8.0 mM): 0.031 mM/min
Vmax (mushroom tyrosinase [2]; inhibitor 5 μM, L-tyrosine 1.0–8.0 mM): 0.031 mM/min
Vmax (mushroom tyrosinase [2]; [4]): 0.031 mM/min
Vmax (mushroom tyrosinase [2]; [5]): 0.031 mM/min
IC50 (mushroom tyrosinase [1]): 4.14 ± 0.1 µM
Inhibition (%), single determinations (mushroom tyrosinase [1]; 0.78 μM): 15.61% and 18.94%
inhibition at 0.78 µM (mushroom tyrosinase [1]; 0.78 μM, read-out: Average of Inhibition (%)): 16.7 ± 1.1%
inhibition at 0.78 µM (mushroom tyrosinase [1]; 0.78 μM, read-out: Inhibition (%), single determinations): 15.7%
Inhibition (%), single determinations (mushroom tyrosinase [1]; 1.56 μM): 24.63% and 31.11%
inhibition at 1.56 µM (mushroom tyrosinase [1]; [6]): 28 ± 1.88%
inhibition at 1.56 µM (mushroom tyrosinase [1]; [7]): 28.3%
Inhibition (%), single determinations (mushroom tyrosinase [1]; 3.13 μM): 48.92%
inhibition at 3.13 µM (mushroom tyrosinase [1]; [8]): 48.78 ± 0.07%
inhibition at 3.13 µM (mushroom tyrosinase [1]; [9]): 48.7%
Inhibition (%), single determinations (mushroom tyrosinase [1]; 6.25 μM): 63.95% and 66.79%
inhibition at 6.25 µM (mushroom tyrosinase [1]; [10]): 64.9 ± 0.94%
inhibition at 6.25 µM (mushroom tyrosinase [1]; [11]): 64%
Tyrosinase Inhibition (%) (mushroom tyrosinase [1]): 94.86 ± 0.16%
inhibition at 50 µM (mushroom tyrosinase [1]): 95%
viability at 24 h, 20 µM [3]: 70.8%
Cytotoxic effect (B16F10 melanoma cells): weakly cytotoxic

Results, then the compound that gave them:

inhibition at 50 µM (mushroom tyrosinase [1]): 47.9 ± 12.8%
SMILES: COc1ccc(-c2ccc(O)cc2O)c(CO)c1 [Compound 2f, 2′-(Hydroxymethyl)-4′-methoxy-[1,1′-biphenyl]-2,4-diol]

Tyrosinase Inhibition (%) (mushroom tyrosinase [1]): 26.30 ± 0.75%
inhibition at 50 µM (mushroom tyrosinase [1]): 26%
SMILES: COc1ccc(-c2c(O)cc(O)cc2O)c(CO)c1 [Compound 2h, 2′-(Hydroxymethyl)-4′-methoxy-[1,1′-biphenyl]-2,4,6-triol]

inhibition at 50 µM (mushroom tyrosinase [1]): < 0%
SMILES: COc1ccc(-c2ccc(OC)cc2CO)c(O)c1 [Compound 2g, 2′-(Hydroxymethyl)-4,4′-dimethoxy-[1,1′-biphenyl]-2-ol]

inhibition at 50 µM (mushroom tyrosinase [1]): < 0%
SMILES: OCc1cc(O)ccc1-c1ccc(O)cc1O [Compound 2e, 2′-(Hydroxymethyl)-[1,1′-biphenyl]-2,4,4′-triol]

inhibition at 50 µM (mushroom tyrosinase [1]): < 0%
SMILES: COc1ccc(-c2ccccc2CO)c(O)c1 [Compound 2b, 2′-(Hydroxymethyl)-4-methoxy-[1,1′-biphenyl]-2-ol]
